# Measurements reported in PubChem BioAssay AID1845213 (Molecular Pharmacology Branch, DTP, NCI, 2023).
# Several values for one entry are separate records, joined by “and”; a condition that tells them apart may be missing. Equal values may be shown once.
# System: NCI-H841 complex tumor spheroid viability
# Experiment: Anticancer human tumor NCI-H841 cell line growth inhibition;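 note: spheroids exposed to compounds for 7 days before readout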;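 for viability, T/C: 100% = DMSO vehicle control wells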
# Settings: for viability, T/C: stronger effect = lower value
# Excerpt: Multicellular complex tumor spheroid response to DNA repair inhibitors in combination with DNA-damaging drugs
# This study explores the anticancer activities of DNA-damaging drugs and inhibitors of DNA damage repair, both as single agents and in combinations. Complex tumor spheroids comprised of malignant cells, endothelial cells and mesenchymal stem cells served as an in vitro model for human solid tumors. This model system incorporates physiologically relevant features and patient-derived or established malignant cell lines with clinically relevant genetic alterations from many tumor types. Twenty-six patient-derived or established malignant cell lines were evaluated representing sarcoma, melanoma, small cell lung cancer (SCLC), non-small cell lung cancer (NSCLC), as well as bladder, ovarian and pancreatic cancers. The concentration ranges selected for each drug and investigational agent were based upon clinically achievable concentrations if the clinical Cmax of the agent was known.
# Compounds. The drugs and compounds olaparib (NSC753686), talazoparib (NSC767125), berzosertib (NSC777718), elimusertib (NSC800525), nedisertib (NSC802822), VX-984 (NSC792969), AZD-1390 (NSC803789), temozolomide (NSC362856), topotecan (NSC609699), trabectedin (NSC813783), staurosporine (NSC755774), and gemcitabine (NSC613327) were obtained from the National Cancer Institute (NCI) Developmental Therapeutics Program Chemical Repository. The FDA-approved anticancer drug set is available from the Developmental Therapeutics Program at https://dtp.cancer.gov/organization/dscb/obtaining/available_plates.htm. […] The stock solutions were prepared in dimethyl sulfoxide (DMSO, Sigma-Aldrich, St. Louis, MO, cat. D2650) at 400-fold the tested concentration and stored at -70 degrees C. Prior to their use, the stock solutions were diluted in fresh medium and the final DMSO concentration in the assay was 0.25% (v/v). All drugs and investigational agents were tested over a range starting from a high concentration at or near the clinical Cmax and decreasing in half-log increments. If the clinical Cmax for an agent had not been determined, the highest concentration tested was 10 microM.
# Cell Lines. The patient-derived cancer cell (PDC) lines: 156681-154-R-J1-PDC, 283228-195-R-J1-PDC, 287954-098-R-J1-PDC, 292921-168-R-J2-PDC, 349418-098-R-PDC, 425362-245-T-J1-PDC, 556581-035-R-J1-PDC, and BL0293-F563-PDC were received from the NCI Patient-Derived Models Repository (PDMR, https://pdmr.cancer.gov). The established cell lines HS-SY-2 (RRID:CVCL_8719), MPNST, and SYO-1 (RRID:CVCL_7146) were obtained from the Sloan Kettering Institute. The alveolar soft parts sarcoma cell line ASPS-1 (RRID:CVCL_S738) was established at the NCI and grown from internal seed stocks. The following established cell lines were purchased from the American Type Culture Collection (ATCC, Manassas, VA): G-401 (ATCC, cat. CRL-1441, RRID:CVCL_0270), SW982 (ATCC, cat. HTB-93, RRID:CVCL_1734), VA-ES-BJ (ATCC, cat. CRL-2138, RRID:CVCL_1785), NCI-H719 (ATCC, cat. CRL-5837, RRID:CVCL_1582), NCI-H196 (ATCC, cat. CRL-5823, RRID:CVCL_1509), NCI-H841 (ATCC, cat. CRL-5845, RRID:CVCL_1595), NCI-H1618 (ATCC, cat. CRL-5879, RRID:CVCL_1480), NCI-H1876 (ATCC, cat. CRL-5902, RRID:CVCL_1503), DMS 114 (ATCC, cat. CRL-2066; RRID:CVCL_1174), NCI-H211 (ATCC, cat. CRL-5824; RRID:CVCL_1529), and SW 1271 (ATCC, cat. CRL-2177, RRID:CVCL_1716). The small cell lung cancer cell line COR-L88 was purchased from Sigma-Aldrich (cat. 92031917-1VL, RRID:CVCL_1141). The non-small cell lung cancer cell lines NCI-H226 (RRID:CVCL_1544) and NCI-H322M (RRID:CVCL_1557) were established at the NCI and grown from internal seed stocks. Pooled donor human umbilical vein endothelial cells (HUVEC, Lonza, cat. CC-2519) and human mesenchymal stem cells (hMSC, Lonza, cat. PT-2501) were purchased from Lonza (Walkersville, MD).
# Cell Culture. All cells were maintained in an incubator at 37 degrees C and 5% CO2 with 95% humidity. […]
# [1] = curve of first compound, second compound 0.003 µM
# [2] = second compound 0.003 µM, first compound 0.00949 µM
# [3] = second compound 0.003 µM, first compound 0.03 µM
# [4] = second compound 0.003 µM, first compound 0.0949 µM
# [5] = second compound 0.003 µM, first compound 0.3 µM
# [6] = second compound 0.003 µM, first compound 0.949 µM
# [7] = second compound 0.003 µM, first compound 3 µM
compound,measurement,setting,value
CNCc1ccc(-c2cc(-c3nc(-c4ccc(S(=O)(=O)C(C)C)cc4)cnc3N)on2)cc1 + CC[C@@]1(O)C(=O)OCc2c1cc1n(c2=O)Cc2cc3c(CN(C)C)c(O)ccc3nc2-1,IC50,[1],56.1 nM
same,IC50,"curve of first compound, second compound 0.00949 µM",< 9.49 nM
same,IC50,"curve of first compound, second compound 0.03 µM",< 9.49 nM
same,IC50,"curve of first compound, second compound 0.0949 µM",< 9.49 nM
same,IC50,"curve of first compound, second compound 0.3 µM",< 9.49 nM
same,"viability, T/C",[2],89.3%
same,"viability, T/C",[3],78.7%
same,"viability, T/C",[4],25.8%
same,"viability, T/C",[5],5.41%
same,"viability, T/C",[6],1.29%
same,"viability, T/C",[7],0.44%
same,"viability, T/C","second compound 0.00949 µM, first compound 0.00949 µM",49.2%
same,"viability, T/C","second compound 0.00949 µM, first compound 0.03 µM",35.6%
same,"viability, T/C","second compound 0.00949 µM, first compound 0.0949 µM",7.71%
same,"viability, T/C","second compound 0.00949 µM, first compound 0.3 µM",1.95%
same,"viability, T/C","second compound 0.00949 µM, first compound 0.949 µM",1%
same,"viability, T/C","second compound 0.00949 µM, first compound 3 µM",0.31%
same,"viability, T/C","second compound 0.03 µM, first compound 0.00949 µM",1.53%
same,"viability, T/C","second compound 0.03 µM, first compound 0.03 µM",4.09%
same,"viability, T/C","second compound 0.03 µM, first compound 0.0949 µM",1.25%
same,"viability, T/C","second compound 0.03 µM, first compound 0.3 µM",1.64%
same,"viability, T/C","second compound 0.03 µM, first compound 0.949 µM",0.71%
same,"viability, T/C","second compound 0.03 µM, first compound 3 µM",0.17%
same,"viability, T/C","second compound 0.0949 µM, first compound 0.00949 µM",1.32%
same,"viability, T/C","second compound 0.0949 µM, first compound 0.03 µM",3.66%
same,"viability, T/C","second compound 0.0949 µM, first compound 0.0949 µM",0.92%
same,"viability, T/C","second compound 0.0949 µM, first compound 0.3 µM",0.89%
same,"viability, T/C","second compound 0.0949 µM, first compound 0.949 µM",0.76%
same,"viability, T/C","second compound 0.0949 µM, first compound 3 µM",0.15%
same,"viability, T/C","second compound 0.3 µM, first compound 0.00949 µM",1.45%
same,"viability, T/C","second compound 0.3 µM, first compound 0.03 µM",1.41%
same,"viability, T/C","second compound 0.3 µM, first compound 0.0949 µM",1.07%
same,"viability, T/C","second compound 0.3 µM, first compound 0.3 µM",0.61%
same,"viability, T/C","second compound 0.3 µM, first compound 0.949 µM",2.25%
same,"viability, T/C","second compound 0.3 µM, first compound 3 µM",0.16%
CNCc1ccc(-c2cc(-c3nc(-c4ccc(S(=O)(=O)C(C)C)cc4)cnc3N)on2)cc1,"viability, T/C",compound 0.00949 µM,100% (2×) and 97.3%
same,"viability, T/C",compound 0.03 µM,94.6% and 98.1% and 99.8%
same,"viability, T/C",compound 0.0949 µM,28.9% and 81.8% and 95.3%
same,"viability, T/C",compound 0.3 µM,25.2% and 24% and 63.7%
same,"viability, T/C",compound 0.949 µM,6.79% and 3.39% and 9.67%
same,"viability, T/C",compound 3 µM,3.17% and 1.05% and 2.03%
same,IC50,curve of compound,66 nM and 179 nM and 400 nM
Cc1sc2c(c1C)C(c1ccc(Cl)cc1)=NC(CC(=O)Nc1ccc(O)cc1)c1nnc(C)n1-2 (configuration not stated) + COc1cc2c(cc1O)CCNC21CSC2c3c(OC(C)=O)c(C)c4c(c3C(COC1=O)N1C(O)C3Cc5cc(C)c(OC)c(O)c5C(C21)N3C)OCO4,IC50,"curve of first compound, second compound 30 pM",515 nM
same,IC50,"curve of first compound, second compound 94.9 pM",291 nM
same,IC50,"curve of first compound, second compound 0.0003 µM",< 9.49 nM
same,IC50,"curve of first compound, second compound 0.000949 µM",< 9.49 nM
same,IC50,[1],< 9.49 nM
same,"viability, T/C","second compound 30 pM, first compound 0.00949 µM",101%
same,"viability, T/C","second compound 30 pM, first compound 0.03 µM",99.2%
same,"viability, T/C","second compound 30 pM, first compound 0.0949 µM",93.3%
same,"viability, T/C","second compound 30 pM, first compound 0.3 µM",69.2%
same,"viability, T/C","second compound 30 pM, first compound 0.949 µM",28.3%
same,"viability, T/C","second compound 30 pM, first compound 3 µM",5.97%
same,"viability, T/C","second compound 94.9 pM, first compound 0.00949 µM",99.5%
same,"viability, T/C","second compound 94.9 pM, first compound 0.03 µM",91.6%
same,"viability, T/C","second compound 94.9 pM, first compound 0.0949 µM",74.9%
same,"viability, T/C","second compound 94.9 pM, first compound 0.3 µM",53.9%
same,"viability, T/C","second compound 94.9 pM, first compound 0.949 µM",14.4%
same,"viability, T/C","second compound 94.9 pM, first compound 3 µM",2.65%
same,"viability, T/C","second compound 0.0003 µM, first compound 0.00949 µM",37.6%
same,"viability, T/C","second compound 0.0003 µM, first compound 0.03 µM",20.6%
same,"viability, T/C","second compound 0.0003 µM, first compound 0.0949 µM",15.6%
same,"viability, T/C","second compound 0.0003 µM, first compound 0.3 µM",5.26%
same,"viability, T/C","second compound 0.0003 µM, first compound 0.949 µM",2.59%
same,"viability, T/C","second compound 0.0003 µM, first compound 3 µM",1.68%
same,"viability, T/C","second compound 0.000949 µM, first compound 0.00949 µM",2.84%
same,"viability, T/C","second compound 0.000949 µM, first compound 0.03 µM",2.9%
same,"viability, T/C","second compound 0.000949 µM, first compound 0.0949 µM",2.06%
same,"viability, T/C","second compound 0.000949 µM, first compound 0.3 µM",0.99%
same,"viability, T/C","second compound 0.000949 µM, first compound 0.949 µM",0.03%
same,"viability, T/C","second compound 0.000949 µM, first compound 3 µM",0.1%
same,"viability, T/C",[2],0.12%
same,"viability, T/C",[3],0.12%
same,"viability, T/C",[4],0.12%
same,"viability, T/C",[5],0.1%
same,"viability, T/C",[6],0.12%
same,"viability, T/C",[7],0.2%
